Here are results for two compounds from ChEMBL document CHEMBL5104217, “Identification of a Target Site for Covalent Inhibition of Protein Phosphohistidine Phosphatase 1” (ACS Med Chem Lett, 2022).

Assay [1] concerns the target T1, 14 kDa phosphohistidine phosphatase (Homo sapiens, UniProt Q9NRX4).
T1 sequence (Q9NRX4 whole entry): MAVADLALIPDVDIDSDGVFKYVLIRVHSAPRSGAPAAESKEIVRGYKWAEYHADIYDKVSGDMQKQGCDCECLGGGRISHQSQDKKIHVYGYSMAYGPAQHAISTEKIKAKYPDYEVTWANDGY
As to the kind of experiment: Inhibition of human PHPT1 expressed in Escherichia coli BL21 (DE3) using pNPP as substrate assessed as inhibition constant by reciprocal analysis.

In assay [2] the target is T2, 14 kDa phosphohistidine phosphatase (Homo sapiens) (UniProt Q9NRX4).
T2 sequence (whole entry): T1 sequence (Q9NRX4 whole entry)
As to the kind of experiment: Inhibition of human PHPT1 expressed in Escherichia coli BL21 (DE3) using pNPP as substrate assessed as Kinact by reciprocal analysis.

Assay [3] deals with T2, 14 kDa phosphohistidine phosphatase (Homo sapiens). The assay can be described thus: Inhibition of human PHPT1 expressed in Escherichia coli BL21 (DE3) using pNPP as substrate assessed as Kinact/Ki by reciprocal analysis.
The species entered for assay [4] is Homo sapiens. The assay can be described thus: Covalent binding affinity to human PHPT1 C69A mutant expressed in Escherichia coli BL21 (DE3) assessed as covalent adduct formation at 10 equiv incubated for 1 hr by RP-HPLC based ESI-MS analysis.
Assay [5] concerns the target T2, 14 kDa phosphohistidine phosphatase (Homo sapiens). The assay can be described thus: Covalent inhibition of human PHPT1 expressed in Escherichia coli BL21 (DE3) assessed as increase in protein mass at 10 equiv incubated for 1 hr by RP-HPLC based ESI-MS analysis.
Assay [6] has the same target. The assay can be described thus: Covalent inhibition of human PHPT1 expressed in Escherichia coli BL21 (DE3) using pNPP as substrate at 10 equiv preincubated for 60 mins by multimode microplate reader analysis.
Assay [7] is filed under the species Homo sapiens. As to the kind of experiment: Covalent binding affinity to human PHPT1 C71A mutant expressed in Escherichia coli BL21 (DE3) assessed as covalent adduct formation at 10 equiv incubated for 1 hr by RP-HPLC based ESI-MS analysis.
Assay [8] concerns the target T1, 14 kDa phosphohistidine phosphatase. As to the kind of experiment: Inhibition of human PHPT1 expressed in Escherichia coli BL21 (DE3) using pNPP as substrate incubated for 1 hr by multimode microplate reader analysis.
Assay [9] concerns the target T2, 14 kDa phosphohistidine phosphatase (Homo sapiens). The assay can be described thus: Covalent inhibition of human PHPT1 expressed in Escherichia coli BL21 (DE3) assessed as inhibition of dephosphorylation of histidine-phosphorylated BSA at 10 equiv preincubated for 1 hr followed by substrate addition and measured for 150 secs by Western blot analysis. The note with it: time 3750.0 sec.

The source made the active and inactive calls. The rule behind the calls is not given here.

For orientation: Ki means the dissociation constant of the complex between target and ligand, obtained from inhibition or displacement. Turning to `CCN1C(=O)C=CC1=O` [N-ETHYLMALEIMIDE], the Ki in assay [1] amounted to 209 µM. In addition, in [2], the Kinact turned out to be 0.0075 s⁻¹. In addition, the Ratio in assay [3] turned out to be 31 M⁻¹ s⁻¹.

As usually defined, the IC50 is the midpoint of a concentration-inhibition curve. A higher IC50 goes with lower potency. `C=C(CC)C(=O)c1ccc(OCC(=O)O)c(Cl)c1Cl` [ETHACRYNIC ACID]: the Ki in [1] is 183 µM. Further, the outcome in the assay listed under Homo sapiens [4] and in the assay filed under Homo sapiens [7] was Active. Moreover, the inhibition result in assay [5], in assay [6] and in assay [9] was “Active” each time. The Kinact in assay [2] amounted to 0.00267 s⁻¹. The compound further registered a half-inhibitory concentration (IC50) in [8] of 18.3 µM. Moreover, the Ratio in [3] was determined as 14.6 M⁻¹ s⁻¹.
